Data taken from patent publication US20230134059A1, “[…] AND METHODS FOR CORRECTING, SLOWING, REDUCING, AND/OR CONTROLLING THE PROGRESSION OF MYOPIA IN CONJUNCTION WITH USE OF ATROPINE OR RELATED COMPOUNDS” (Brien Holden Vision Institute Limited, priority 2020, published 2023).
Read-outs that look alike come from different tables or passages of the source.

Columns and labels:
eye of a -2.00 D myope = assay: Spherical aberration of combined spectacle lens and eye system after Atropine-induced pupil increase; type: in vivo; details: pupillary diameter increased from about 3 mm to about 6 mm with use of Atropine
Description: FIG. 1A illustrates a schematic plot of pupil diameters resulting from use of Atropine, a widely used muscarinic receptor antagonist and a pharmaceutical agent for myopia therapy. […] Considering FIG. 1A, it is observed that use of 0.01% Atropine which to date is the lowest concentration used for treatment of myopia in individuals, increases the photopic pupillary diameter by approximately 1 mm. Increasing the concentration to anywhere from 0.025% to 0.1% Atropine, increases the photopic pupil size from about 2 mm to about 3 mm. With the highest concentration of 0.5% Atropine, the increase in photopic pupil size was largest and at about 3 mm. An increase in pupil size increases aberrations of the eye. […] FIG. 1B illustrates the increase in higher order aberrations from 3rd to 6th order as determined by aberrometry for the myopic eye of an individual who has a distance refractive error of approximately −2.00 D. It is observed that there is a significant increase in aberrations with a larger pupil. An increase in the pupil size may result in a functional decrement in visual performance and one or more unwanted effects such as poorer visual performance, reduced contrast, blurred vision, increased glare and increased photophobia (sensitivity to light). […]

[1] = system: eye of individuals treated for myopia; details: cited from earlier work
myopia progression = details: Atropine eye drops 0.01% to 1.0%; cited from earlier work
children aged 6-12 years = details: concentrations greater than 0.1% Atropine; cited from earlier work
[2] = system: myopic children aged 8-10 years; details: cited from earlier work

CN1[C@@H]2CC[C@H]1C[C@@H](OC(=O)C(CO)c1ccccc1)C2 (some centres unmarked) [Atropine]
effective increase of spherical aberration of combined spectacle lens and eye system (eye of a -2.00 D myope): about +0.50 D | increase in photopic pupillary diameter ([1]; 0.01% Atropine): approximately 1 mm | increase in photopic pupil size ([1]; 0.5% Atropine (highest concentration)): about 3 mm | efficacy in slowing myopia, concentration dependent response (myopia progression): the higher the concentration, the greater the efficacy | reduction in amplitude of accommodation (children aged 6-12 years): more than half | request photochromic progressive lenses, % of the time ([2]; atropine 0.01%): 6% | request photochromic progressive lenses, % of the time ([2]; atropine 0.1%): 61% | request photochromic progressive lenses, % of the time ([2]; atropine 0.5%): 70%
